Data published in paper PMC9692511, “Coumarin-Based Dual Inhibitors of Human Carbonic Anhydrases and Monoamine Oxidases Featuring Amino Acyl and (Pseudo)-Dipeptidyl Appendages: In Vitro and Computational Studies” (Molecules, 2022).
Values joined by “and” are separate entries in the source; they are usually repeats but may differ in a detail not shown here. Identical values can stand only once. Like-named read-outs stand apart in the source and are kept apart here.

What was measured:
[1] = biological target: T1, hCA I (Homo sapiens, UniProt P00915); test: hCA I inhibition, stopped-flow CO2 hydration assay; type: biochemical; conditions: stopped-flow technique, mean of three independent experiments
T1 construct: made in house
T1 sequence (P00915 whole entry): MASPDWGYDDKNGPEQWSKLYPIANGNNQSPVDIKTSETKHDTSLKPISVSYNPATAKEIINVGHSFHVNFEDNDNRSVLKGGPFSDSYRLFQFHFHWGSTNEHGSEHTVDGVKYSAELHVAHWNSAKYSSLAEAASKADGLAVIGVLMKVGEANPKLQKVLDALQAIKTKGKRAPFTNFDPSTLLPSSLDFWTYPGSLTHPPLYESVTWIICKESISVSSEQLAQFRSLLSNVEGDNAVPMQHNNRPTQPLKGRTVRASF
Experimental: (§1) An Applied Photophysics stopped-flow instrument was used for measuring hCA-catalyzed CO2 hydration activity. […] However, the background activity from the uncatalyzed reaction was always subtracted when IC50 values were obtained by using the data analysis software for the stopped-flow instrument. […] The uncatalyzed rates were measured in the same manner and were subtracted from the total observed rates. Stock solutions of the inhibitor (0.1 mM) were prepared in distilled-deionized water, and dilutions up to 0.01 nM were performed thereafter with the assay buffer. Inhibitor and enzyme solutions were preincubated together for 15 min at room temperature prior to the assay, to allow for the formation of the E–I complex. The inhibition constants (Ki) were obtained by the nonlinear least-squares methods using PRISM 3 and the Cheng-Prusoff equation as reported earlier and are presented as the mean from at least three different determinations. All hCA isoforms were recombinant proteins obtained in-house, as reported earlier.

[2] = biological target: T2, hCA XII (Homo sapiens, UniProt O43570); test: hCA XII inhibition, stopped-flow CO2 hydration assay; type: biochemical; conditions: for SI hCA XII over hCA I or hCA II: Ki hCA I or II (nM)/Ki hCA XII (nM); for SI hCA XII over hCA IX: Ki hCA IX (nM)/Ki hCA XII (nM)
T2 construct: made in house
T2 sequence (O43570 25-354): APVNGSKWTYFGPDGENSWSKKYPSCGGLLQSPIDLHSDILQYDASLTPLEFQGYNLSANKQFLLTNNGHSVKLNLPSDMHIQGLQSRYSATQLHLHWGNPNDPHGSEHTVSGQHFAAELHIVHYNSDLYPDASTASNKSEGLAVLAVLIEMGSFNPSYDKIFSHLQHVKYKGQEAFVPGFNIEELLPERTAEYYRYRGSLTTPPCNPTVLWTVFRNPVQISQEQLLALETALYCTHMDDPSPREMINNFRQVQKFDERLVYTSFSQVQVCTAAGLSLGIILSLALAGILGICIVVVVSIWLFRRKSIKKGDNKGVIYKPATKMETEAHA
Experimental: as §1

[3] = biological target: T3, hCA IX (Homo sapiens, UniProt Q16790); test: hCA IX inhibition, stopped-flow CO2 hydration assay; type: biochemical; conditions: for Ki: stopped-flow technique, mean of three independent experiments
T3 construct: made in house
Experimental: as §1

[4] = biological target: T4, hMAO-B (Homo sapiens, UniProt P27338); test: hMAO-B inhibition, kynuramine fluorescence assay; type: biochemical; conditions: recombinant human MAO-B, kynuramine substrate; mean ± SD of three independent experiments
T4 construct: purchased Sigma-Aldrich
T4 sequence (P27338 1-520): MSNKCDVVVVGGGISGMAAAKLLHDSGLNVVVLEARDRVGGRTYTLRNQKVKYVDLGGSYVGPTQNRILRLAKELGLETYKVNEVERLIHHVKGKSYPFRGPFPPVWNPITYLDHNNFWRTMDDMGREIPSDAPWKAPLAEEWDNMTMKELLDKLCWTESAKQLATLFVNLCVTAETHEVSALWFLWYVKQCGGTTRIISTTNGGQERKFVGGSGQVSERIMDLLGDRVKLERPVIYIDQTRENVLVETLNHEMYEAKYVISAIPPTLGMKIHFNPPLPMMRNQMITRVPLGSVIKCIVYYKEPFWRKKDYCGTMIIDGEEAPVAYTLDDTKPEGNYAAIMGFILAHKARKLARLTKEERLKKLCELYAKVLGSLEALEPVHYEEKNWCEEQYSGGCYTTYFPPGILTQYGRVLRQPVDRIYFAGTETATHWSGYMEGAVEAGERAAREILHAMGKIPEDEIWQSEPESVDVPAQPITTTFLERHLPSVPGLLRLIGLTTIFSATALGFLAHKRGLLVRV
Experimental: (§2) Activity measurements (IC50) for hMAO-A and hMAO-B were carried out as reported in the literature. Recombinant human MAO-A and MAO-B were obtained commercially (Sigma-Aldrich, Cape Town, South Africa) and were used as enzyme sources. Kynuramine is a non-specific substrate and serves as a substrate for both hMAO isoforms. The hMAOs metabolize kynuramine to produce 4-hydroxyquinoline, which was measured at the endpoint of the enzyme reactions by fluorescence spectrophotometry.

[5] = biological target: T5, hMAO-A (Homo sapiens, UniProt P21397); test: hMAO-A inhibition, kynuramine fluorescence assay; type: biochemical
T5 construct: purchased Sigma-Aldrich
T5 sequence (P21397 1-527): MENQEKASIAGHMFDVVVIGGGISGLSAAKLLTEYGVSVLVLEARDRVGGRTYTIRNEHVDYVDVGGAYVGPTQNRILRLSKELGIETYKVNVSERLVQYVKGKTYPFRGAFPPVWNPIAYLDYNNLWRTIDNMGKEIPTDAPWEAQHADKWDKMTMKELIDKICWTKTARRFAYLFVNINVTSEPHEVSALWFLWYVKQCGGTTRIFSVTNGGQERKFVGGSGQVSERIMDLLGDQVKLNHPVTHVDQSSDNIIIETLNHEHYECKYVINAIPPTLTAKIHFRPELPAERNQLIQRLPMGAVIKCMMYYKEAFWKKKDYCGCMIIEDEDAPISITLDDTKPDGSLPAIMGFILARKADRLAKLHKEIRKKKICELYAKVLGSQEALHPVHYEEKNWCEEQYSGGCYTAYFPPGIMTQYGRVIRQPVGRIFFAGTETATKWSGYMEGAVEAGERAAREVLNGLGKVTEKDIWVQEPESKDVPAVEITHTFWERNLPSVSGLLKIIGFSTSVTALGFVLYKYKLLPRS
Experimental: as §2

[6] = biological target: T6, hCA II (Homo sapiens, UniProt P00918); test: hCA II inhibition, stopped-flow CO2 hydration assay; type: biochemical; conditions: stopped-flow technique, mean of three independent experiments
T6 construct: made in house
Experimental: as §1

[7] = recombinant human MAO-A, kynuramine substrate, mean ± SD of three independent experiments
[8] = Ki hCA I or II (nM)/Ki hCA IX (nM)
[9] = stopped-flow technique, mean of three independent experiments, read-out: Ki hCA XII

| SMILES | Ki [1] [µM] | SI hCA XII over hCA I or hCA II [2] | SI hCA XII over hCA IX [2] | SI hCA IX over hCA I or hCA II [3] | Ki [3] [µM] | IC50 [4] [µM] | IC50 [5, 7] | Ki [6] [µM] | Ki [2] [µM] | SI hCA IX over hCA I or hCA II [3, 8] | melting point [°C] | Ki [2, 9] [µM] | SI MAO-B/MAO-A ([5]; IC50 MAO-B/IC50 MAO-A, selectivity for hMAO-A) | MAO-B (IC50 μM) [4] | MAO-A (IC50 μM) [5, 7] |
| --- | --- | --- | --- | --- | --- | --- | --- | --- | --- | --- | --- | --- | --- | --- | --- |
| Cc1cc(=O)oc2cc(NC(=O)[C@H](C)NC(=O)OCc3ccccc3)ccc12 [Compound 1, Z-Ala-AMC] | > 10 | >90.9 | 0.3 | >327.9 | 0.0305 | > 100 | < 10 µM and 9.31 µM | > 10 |  |  |  |  |  |  |  |
| Cc1cc(=O)oc2cc(NC(=O)[C@H](C)NC(=O)OCC3c4ccccc4-c4ccccc43)ccc12 [Compound 2, Fmoc-Ala-AMC] | > 10 | >268.8 | 2.4 |  | 0.091 | > 100 | 54.8 ± 0.028 µM | > 10 | 0.0372 | >109.9 | 153 to 155 |  |  |  |  |
| CC(=O)N[C@@H](C)C(=O)Nc1ccc2c(C)cc(=O)oc2c1 [Compound 6, Ac-Ala-AMC] | > 10 | >327.9 | 0.8 |  | 0.0234 | > 100 | < 10 µM and 1.92 µM | > 10 |  | >427.3 |  | 0.0305 | 52 |  |  |
| COCc1cc(=O)oc2cc(NC(=O)[C@H](C)NC(C)=O)ccc12 [Compound 7, Ac-Ala-AMMC] | > 10 | >213.7 | 0.6 |  | 0.0294 | 45.6 ± 1.85 | 12 ± 0.693 µM | > 10 |  | >340.1 |  | 0.0468 |  |  |  |
| CCC(C)C(NC(=O)OCc1ccccc1)C(=O)Nc1ccc2c(COC)cc(=O)oc2c1 (stereo not drawn) [Compound 8, Z-Ile-AMMC] | > 10 | >241.0 | 1.9 |  | 0.0787 | > 100 | 47 ± 13.5 µM | > 10 | 0.0415 | >127.1 |  |  |  |  |  |
| COCc1cc(=O)oc2cc(NC(=O)[C@@H](NC(=O)[C@H](C)NC(=O)OCc3ccccc3)C(C)(C)C)ccc12 [Compound 11, Z-Ala-tLeu-AMMC] | > 10 | >29.7 | 0.5 |  | 0.172 | 79.5 ± 7.24 | 41.3 ± 17.8 µM | > 10 | 0.336 | >58.3 | 205 to 209 |  |  |  |  |
| COC(=O)CNC(=O)N[C@@H](C)C(=O)Nc1ccc2c(C)cc(=O)oc2c1 [Compound 16, MeO-Gly-CO-Ala-AMC] | > 10 | >261.8 | 4.8 |  | 0.183 | > 100 | < 10 µM and 5.91 µM | > 10 | 0.0382 | >54.6 | 193 to 195 |  |  |  |  |
| COC(=O)[C@H](C)NC(=O)N[C@@H](C)C(=O)Nc1ccc2c(C)cc(=O)oc2c1 [Compound 17, MeO-Ala-CO-Ala-AMC] | > 10 | >1041.7 | 17.0 |  | 0.163 | 58.6 ± 24 | 69.6 ± 9.28 µM | > 10 | 0.0096 | >61.2 | 193 to 195 |  |  |  |  |
| COC(=O)[C@H](Cc1ccccc1)NC(=O)N[C@@H](C)C(=O)Nc1ccc2c(C)cc(=O)oc2c1 [Compound 18, MeO-Phe-CO-Ala-AMC] | > 10 | >250.0 | 2.3 |  | 0.0936 | 78 ± 22.3 | 21.8 ± 0.092 µM | > 10 | 0.04 | >106.8 | 177 to 183 |  |  |  |  |
| CCOC(=O)CCNC(=O)N[C@@H](C)C(=O)Nc1ccc2c(C)cc(=O)oc2c1 [Compound 19, EtO-βAla-CO-Ala-AMC] | > 10 | >1052.6 | 27.4 |  | 0.261 | > 100 | > 100 µM | > 10 | 0.0095 | >38.4 | 182 to 183 |  |  | completely devoid of activity | completely devoid of activity |
| COCc1cc(=O)oc2cc(NC(=O)[C@H](C)NC(=O)N[C@@H](C)C(=O)OC)ccc12 [Compound 20, MeO-Ala-CO-Ala-AMMC] | > 10 | >182.8 | 0.5 |  | 0.027 | 75.3 ± 0.976 | > 100 µM | > 10 | 0.0547 | >370.4 | 148 to 150 |  |  |  |  |
